According to ChEMBL document CHEMBL1139776, “Development of carboxylic acid replacements in indole-N-acetamide inhibitors of hepatitis C virus NS5B polymerase” (Bioorg Med Chem Lett, 2007):
The source made the active and inactive calls. No cut-off for these calls is given here.

Tests used:
[1] = Inhibition of HCV NS5B deltaC RNA polymerase; set-up: species or system Hepacivirus hominis
Hepatitis C virus [2] = experiment: Antiviral activity against HCV in Huh7 cells assessed as inhibition of viral replication in presence of 10% fetal calf serum; assay type: functional, organism-based, Hepacivirus hominis; settings: Huh-7
[3] = Terminal phase half life in rat at 3 mg/kg, iv; assay type: ADME, organism-based; set-up: dose 3 mg/kg, route intravenous; settings: in vivo
[4] = Plasma clearance in rat at 3 mg/kg, po or 3 mg/kg, iv; assay type: ADME, organism-based
[5] = AUC in rat at 3 mg/kg, po; assay type: ADME, organism-based; set-up: dose 3 mg/kg, route oral; settings: plasma
[6] = Dissociation constant, pKa of the compound; assay type: physicochemical
Homo sapiens = organism: Homo sapiens; experiment: Protein binding in human plasma assessed as free drug level; settings: read-out: PPB
[7] = Oral bioavailability in rat at 3 mg/kg; assay type: ADME, organism-based; settings: in vivo
Hepatitis C virus [8] = experiment: Antiviral activity against HCV in Huh7 cells assessed as inhibition of viral replication in absence of serum; assay type: functional, organism-based, Hepacivirus hominis; settings: Huh-7
[9] = Cytotoxicity against Huh7 cells; assay type: cell-based, Huh-7; settings: human

IC50 [1]	EC50 (Hepatitis C virus [2])	fraction unbound (Homo sapiens)	SMILES	other results
640 nM	–	0.001	CN(C)C(=O)Cn1c(-c2ccccc2)c(C2CCCCC2)c2ccc(C(=O)N(C)S(=O)(=O)Cc3ccccc3)cc21	Activity (Hepatitis C virus [2]; Hepacivirus hominis): inactive
46 nM	2100 nM	–	CCS(=O)(=O)NC(=O)c1ccc2c(C3CCCCC3)c(-c3ccccc3)n(CC(=O)N(C)C)c2c1	half-life [3]: 2 h; clearance [4]: 51 mL/min/kg; AUC [5]: 1 µM·h; EC50 (Hepatitis C virus [8]): 520 nM
31 nM	5000 nM	< 0.001	CN(C)C(=O)Cn1c(-c2ccccc2)c(C2CCCCC2)c2ccc(C(=O)NS(=O)(=O)Cc3ccccc3)cc21	EC50 (Hepatitis C virus [8]): 150 nM
9 nM	710 nM	0.008	CN(C)C(=O)Cn1c(-c2ccccc2)c(C2CCCCC2)c2ccc(C(=O)NS(=O)(=O)N(C)C)cc21	–
29 nM	1600 nM	–	CN(C)C(=O)Cn1c(-c2ccccc2)c(C2CCCCC2)c2ccc(C(=O)NS(=O)(=O)CC(=O)O)cc21	–
11 nM	3900 nM	0.003	CN(C)C(=O)Cn1c(-c2ccccc2)c(C2CCCCC2)c2ccc(C(=O)NS(=O)(=O)c3ccccc3)cc21	EC50 (Hepatitis C virus [8]): 130 nM
86 nM	1500 nM	–	CN(C)C(=O)Cn1c(-c2ccccc2)c(C2CCCCC2)c2ccc(C(=O)O)cc21	half-life [3]: 5 h; clearance [4]: 32 mL/min/kg; AUC [5]: 2 µM·h; pKa [6]: 4.8
31 nM	5400 nM	0.019	CN(C)CCS(=O)(=O)NC(=O)c1ccc2c(C3CCCCC3)c(-c3ccccc3)n(CC(=O)N(C)C)c2c1	EC50 (Hepatitis C virus [8]): 2000 nM

The next lines start with the compound.

SMILES	IC50 [1]	EC50 (Hepatitis C virus [2])	fraction unbound (Homo sapiens)	other results
CN(C)CC1CN(C(=O)Cn2c(-c3ccoc3)c(C3CCCCC3)c3ccc(-c4noc(=O)[nH]4)cc32)CCO1 (stereo unspecified)	26 nM	1100 nM	–	–
CN(C)C(=O)Cn1c(-c2ccccc2)c(C2CCCCC2)c2ccc(-c3noc(=O)[nH]3)cc21	68 nM	4400 nM	0.001	half-life [3]: 13 h; clearance [4]: 12 mL/min/kg; AUC [5]: 2 µM·h; pKa [6]: 4.8
CN1CCC(N(C)C(=O)Cn2c(-c3ccccc3)c(C3CCCCC3)c3ccc(-c4noc(=O)[nH]4)cc32)C1 (stereo unspecified)	75 nM	1600 nM	–	–
CN(C)C(=O)Cn1c(-c2ccoc2)c(C2CCCCC2)c2ccc(C(=O)NS(=O)(=O)N(C)C)cc21	14 nM	380 nM	0.011	–
CN(C)C1CCN(C(=O)Cn2c(-c3cnn(C)c3)c(C3CCCCC3)c3ccc(-c4noc(=O)[nH]4)cc32)CC1	170 nM	> 50000 nM	0.094	–
CN(C)C(=O)Cn1c(-c2ccccc2)c(C2CCCCC2)c2ccc(-c3noc(=O)[nH]3)cc21.O=C(O)C(F)(F)F	–	–	–	bioavailability [7]: 20%
COc1cccc(-c2c(C3CCCCC3)c3ccc(-c4noc(=O)[nH]4)cc3n2CC(=O)N2CCC(N(C)C)CC2)c1	67 nM	3700 nM	–	–
CN(C)C(=O)Cn1c(-c2ccoc2)c(C2CCCCC2)c2ccc(C(=O)NS(=O)(=O)CC(=O)O)cc21	19 nM	560 nM	0.01	–
CN(C)C1CCN(C(=O)Cn2c(-c3ccccc3F)c(C3CCCCC3)c3ccc(-c4noc(=O)[nH]4)cc32)CC1	53 nM	2400 nM	–	–
Cc1ccccc1-c1c(C2CCCCC2)c2ccc(-c3noc(=O)[nH]3)cc2n1CC(=O)N1CCC(N(C)C)CC1	300 nM	17000 nM	–	–
CN(C)C1CCN(C(=O)Cn2c(-c3ccccc3)c(C3CCCCC3)c3ccc(-c4noc(=O)[nH]4)cc32)CC1	59 nM	1300 nM	–	–
CCS(=O)(=O)NC(=O)c1ccc2c(C3CCCCC3)c(-c3ccoc3)n(CC(=O)N(C)C)c2c1	22 nM	1500 nM	0.008	–
CCS(=O)(=O)NC(=O)c1ccc2c(C3CCCCC3)c(-c3ccccc3)n(CC(=O)N(C)C)c2c1.O=C(O)C(F)(F)F	–	–	–	bioavailability [7]: 24%
CCN(CC)CC1CN(C(=O)Cn2c(-c3ccc(OC)cc3)c(C3CCCCC3)c3ccc(C(=O)NS(=O)(=O)CC)cc32)CCO1 (stereo unspecified)	9 nM	340 nM	–	CC50 [9]: 50000 nM
CN(C)C(=O)Cn1c(-c2ccccc2)c(C2CCCCC2)c2ccc(C(=O)O)cc21.O=C(O)C(F)(F)F	–	–	–	bioavailability [7]: 45%
CCN(CC)C1CCN(C(=O)Cn2c(-c3ccoc3)c(C3CCCCC3)c3ccc(C(=O)NS(=O)(=O)N(C)C)cc32)CC1	4 nM	120 nM	–	CC50 [9]: 50000 nM
CCS(=O)(=O)NC(=O)c1ccc2c(C3CCCCC3)c(-c3ccc(OC)cc3)n(CC(=O)N(C)C)c2c1	11 nM	1500 nM	–	–
CN(C)C1CCN(C(=O)Cn2c(-c3ccc(Cl)cc3)c(C3CCCCC3)c3ccc(-c4noc(=O)[nH]4)cc32)CC1	17 nM	1900 nM	–	–
CN1CCCC(CN(C)C(=O)Cn2c(-c3ccccc3)c(C3CCCCC3)c3ccc(-c4noc(=O)[nH]4)cc32)C1 (stereo unspecified)	47 nM	1100 nM	0.021	–
CN(C)C(=O)Cn1c(-c2cccnc2)c(C2CCCCC2)c2ccc(-c3noc(=O)[nH]3)cc21	780 nM	20000 nM	–	–
